Biological target: Serine/threonine-protein kinase ATR (Homo sapiens, UniProt Q13535)
Experiment: Inhibition Assay: Compounds were screened for their ability to inhibit ATR kinase using a radioactive-phosphate incorporation assay. Assays were carried out in a mixture of 50 mM Tris/HCl (pH 7.5), 10 mM MgCl2 and 1 mM DTT. Final substrate concentrations were 10 Î¼M [Î³-33P]ATP (3mCi 33P ATP/mmol ATP, Perkin Elmer) and 800 Î¼M target peptide (ASELPASQPQPFSAKKK).Assays were carried out at 25° C. in the presence of 5 nM full-length ATR. An assay stock buffer solution was prepared containing all of the reagents listed above, with the exception of ATP and the test compound of interest. 13.5 Î¼L of the stock solution was placed in a 96 well plate followed by addition of 2 Î¼L of DMSO stock containing serial dilutions of the test compound (typically starting from a final concentration of 15 Î¼M with 3-fold serial dilutions) in duplicate (final DMSO concentration 7%). The plate was pre-incubated for 10 minutes at 25° C. and the reaction initiated by addition of 15 Î¼L [Î³-33P]ATP.

Sequence of Serine/threonine-protein kinase ATR (Q13535 whole entry): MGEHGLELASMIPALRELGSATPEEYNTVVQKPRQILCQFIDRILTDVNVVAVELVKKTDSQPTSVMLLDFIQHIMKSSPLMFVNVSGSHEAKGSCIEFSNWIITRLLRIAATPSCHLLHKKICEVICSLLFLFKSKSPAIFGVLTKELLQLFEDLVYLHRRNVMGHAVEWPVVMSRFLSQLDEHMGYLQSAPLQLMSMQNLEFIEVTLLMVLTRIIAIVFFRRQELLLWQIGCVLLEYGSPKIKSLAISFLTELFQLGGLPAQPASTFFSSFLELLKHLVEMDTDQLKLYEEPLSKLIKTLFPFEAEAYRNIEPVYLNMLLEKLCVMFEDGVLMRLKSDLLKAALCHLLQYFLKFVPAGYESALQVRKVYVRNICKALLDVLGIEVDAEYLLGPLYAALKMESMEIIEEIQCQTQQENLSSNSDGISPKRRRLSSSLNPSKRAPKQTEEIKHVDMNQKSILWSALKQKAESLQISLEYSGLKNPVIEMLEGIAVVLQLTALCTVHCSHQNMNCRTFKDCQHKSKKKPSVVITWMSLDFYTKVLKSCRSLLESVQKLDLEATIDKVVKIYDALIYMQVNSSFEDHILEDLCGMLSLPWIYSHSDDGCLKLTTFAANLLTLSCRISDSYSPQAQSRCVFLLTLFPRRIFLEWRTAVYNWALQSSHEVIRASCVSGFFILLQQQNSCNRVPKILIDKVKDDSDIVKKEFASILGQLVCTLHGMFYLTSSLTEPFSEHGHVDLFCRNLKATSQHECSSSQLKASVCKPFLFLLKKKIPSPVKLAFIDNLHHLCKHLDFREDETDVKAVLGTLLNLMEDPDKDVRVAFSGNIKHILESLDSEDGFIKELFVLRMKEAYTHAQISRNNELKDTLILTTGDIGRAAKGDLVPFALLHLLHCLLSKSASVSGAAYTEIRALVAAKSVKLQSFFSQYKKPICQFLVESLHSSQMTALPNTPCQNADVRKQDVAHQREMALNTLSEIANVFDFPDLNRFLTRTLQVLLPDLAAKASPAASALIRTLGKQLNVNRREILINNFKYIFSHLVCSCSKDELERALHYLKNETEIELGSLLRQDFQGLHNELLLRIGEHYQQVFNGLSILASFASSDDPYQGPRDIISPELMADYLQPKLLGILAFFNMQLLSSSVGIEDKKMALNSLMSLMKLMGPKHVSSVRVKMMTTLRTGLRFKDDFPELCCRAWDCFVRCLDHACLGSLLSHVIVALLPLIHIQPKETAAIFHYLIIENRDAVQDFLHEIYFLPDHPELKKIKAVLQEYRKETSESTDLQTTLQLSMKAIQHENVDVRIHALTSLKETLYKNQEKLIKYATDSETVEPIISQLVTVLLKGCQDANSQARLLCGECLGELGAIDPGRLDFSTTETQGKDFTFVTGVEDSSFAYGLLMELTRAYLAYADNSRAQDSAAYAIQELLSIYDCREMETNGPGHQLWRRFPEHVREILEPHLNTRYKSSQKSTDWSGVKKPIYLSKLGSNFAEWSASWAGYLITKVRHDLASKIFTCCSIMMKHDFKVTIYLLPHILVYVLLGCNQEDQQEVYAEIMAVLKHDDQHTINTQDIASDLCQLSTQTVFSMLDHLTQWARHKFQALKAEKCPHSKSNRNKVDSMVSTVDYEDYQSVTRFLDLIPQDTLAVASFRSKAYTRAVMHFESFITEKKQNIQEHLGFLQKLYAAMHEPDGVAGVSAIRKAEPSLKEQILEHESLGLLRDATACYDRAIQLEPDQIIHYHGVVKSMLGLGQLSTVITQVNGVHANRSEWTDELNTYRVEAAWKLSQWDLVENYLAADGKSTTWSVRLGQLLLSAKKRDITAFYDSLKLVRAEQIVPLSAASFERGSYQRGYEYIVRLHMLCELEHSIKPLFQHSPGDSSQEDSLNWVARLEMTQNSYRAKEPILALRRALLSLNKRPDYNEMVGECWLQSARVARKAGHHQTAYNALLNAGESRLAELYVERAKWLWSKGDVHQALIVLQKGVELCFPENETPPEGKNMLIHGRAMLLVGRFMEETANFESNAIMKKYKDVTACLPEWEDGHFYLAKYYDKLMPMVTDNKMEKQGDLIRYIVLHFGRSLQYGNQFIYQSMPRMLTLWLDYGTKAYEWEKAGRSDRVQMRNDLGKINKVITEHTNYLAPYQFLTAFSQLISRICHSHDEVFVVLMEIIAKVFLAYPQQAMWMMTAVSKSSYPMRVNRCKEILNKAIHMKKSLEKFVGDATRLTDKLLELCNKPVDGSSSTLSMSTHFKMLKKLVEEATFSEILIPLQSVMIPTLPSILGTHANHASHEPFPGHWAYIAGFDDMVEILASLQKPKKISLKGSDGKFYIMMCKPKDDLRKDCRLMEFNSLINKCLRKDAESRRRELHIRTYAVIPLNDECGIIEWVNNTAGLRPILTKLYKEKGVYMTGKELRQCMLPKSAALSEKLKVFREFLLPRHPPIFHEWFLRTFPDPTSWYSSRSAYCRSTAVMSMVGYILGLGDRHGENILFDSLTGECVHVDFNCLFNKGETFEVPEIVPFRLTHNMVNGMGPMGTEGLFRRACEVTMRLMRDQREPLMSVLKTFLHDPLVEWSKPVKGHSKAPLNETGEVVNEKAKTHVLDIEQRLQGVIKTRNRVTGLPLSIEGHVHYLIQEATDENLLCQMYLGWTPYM

- Ki: 90 nM
SMILES: CNCc1ccc(C2=NOC(c3nc(-c4ccc(S(=O)(=O)C(C)C)cc4)cnc3N)C2)cc1 (stereo unspecified)
